Structures can show the parent of a compound that is named as a salt.
Tests used:
[1] = Solid-state chemical stability of 25HC3S salts at 2-8° C., 60° C. and 80° C. (HPLC assay and degradation products); assay type: physicochemical; settings: for Physical and chemical solid-state stability (comments): listed as 25HC3S Calcium
Description: Approximately 25 mg of each crystalline 25HC3S salt was added to 20 mL glass vials and each powder weight was recorded. Four vials were prepared for each salt and stored at 2-8° C. or 80° C. according to Table B2. The samples were scheduled initially to pull for testing at 3 weeks and 6 weeks' time points.
For those […] salts, the remaining vials stored at 2-8° C. for 3 weeks were allocated for storage at 60° C. for 1 week. Additional stability data was generated according to Table B3.
Based on the molecular weights, and expected UV response factors of each salt used in this study, the expected analytical sample concentrations were within the range of the 25HC3S sodium reference standards (0.75 mg/mL to 1.25 mg/mL as 25HC3S sodium salt). However, due to the lower-than-expected purity of the 25HC3S benzathine salt, an additional standard was prepared at 0.125 mg/mL as 25HC3S sodium salt.
Samples were prepared by pipetting 20 mL of 100% methanol into each vial and mixing well, with sonication and vortexing to fully dissolve the samples for HPLC analysis.
Samples were prepared by pipetting 20 mL of 100% methanol into each vial followed by two rounds of sonication for 30 minutes, with 30 seconds of vortexing before and after each round. Sample aliquots were then centrifuged at 10,000 RPM for 10 minutes and the supernatant collected for HPLC analysis.
Samples were prepared by pipetting 20 mL of 100% methanol into each vial, followed by 5 seconds of vortexing. The undissolved powder in methanol was quantitatively transferred into 200 mL volumetric flasks. The sample vials were rinsed 3 times with methanol, with each rinsate transferred to the 200 mL volumetric flasks. The volumetric flasks were filled to about 90% volume and sonicated for 10 minutes to fully dissolve the powder. The flasks were filled to volume with methanol, mixed well and aliquots collected for HPLC analysis.
HPLC analysis was performed.

[2] = Solubility of 25HC3S salts after one day at room temperature (HPLC, as free acid); assay type: physicochemical; settings: room temperature, one day
Description: These fluids were prepared per the instruction listed by Biorelevant (Biorelevant.com). Each buffer concentrate was diluted with water and mixed well. FaSSIF, FeSSIF, FaSSGF powder was added to each buffer and mixed to completely dissolve the powder. Buffers were stored at room temperature and used within 48 hours of preparation.
25HC3S salts were weighed in 8 mL or 4 mL glass vials with Teflon coated screw caps. Aliquots of each solvent were added to each sample and vortexed for about one minute until excess solid remained. Samples were placed on shaker at room temperature with 210 motion per minute shaking.
After one day, samples were pulled and checked if excess solid was present. About 1.5 mL aliquot of each sample was centrifuged at 12000 rpm for 12 to 15 minutes. […] Aliquots of the top clear solution of each centrifuged sample in MeOH, EtOH, IPA and ACN were diluted with diluent (water:MeOH 95:5) and assayed by HPLC. Samples of the salts in aqueous media were assayed by HPLC without dilution.
All solubility sample solutions of 25HC3S salts were determined using HPLC. A linear standard curve was constructed using standards with concentration between 11 μg/mL to 1.5 mg/mL as free acid forcing the curve to origin. Solubilities are reported as mg/mL free acid 25HC3S. Detection limit (LOD) of the HPLC method was calculated as 0.0007 mg/mL.

Assay ([1]; 2-8° C., 3 wk, 30240 min, listed as 25HC3S calcium): 92.9 % w/w
% Impurities, Total ([1]; 2-8° C., 3 wk, ND = Not Detected, listed as 25HC3S calcium): 1.6%
Overall physical and chemical stability (in words) ([1]; 2-8° C., 60° C., 80° C.): least physically and chemically stable
Overall physical and chemical stability (in words) ([1]; 2-8° C., 60° C., 80° C., listed as 25HC35S calcium): least stable
% Impurities, 25-HC ([1]; 25-Hydroxy-Cholesterol, 2-8° C., 3 wk, ND = Not Detected, listed as 25HC3S calcium): 0.2%
Physical and chemical solid-state stability (comments) ([1]; 60° C., 1 week): Totally decomposed after 1 week at 60 °C
Assay ([1]; 60° C., 1 wk (after 3 weeks at 2-8° C.), 10080 min, listed as 25HC3S calcium, 10080 min): 0.0 % w/w
% Recovery of 2-8° C./3 wk vs 60° C./1 wk ([1]; 60° C., 1 wk, 10080 min, listed as 25HC3S calcium): 0.0%
% Recovery ([1]; 80° C., 3 wk, vs 2-8° C., 30240 min, listed as 25HC3S calcium, 30240 min): 0.0%
Assay ([1]; 80° C., 3 wk, 30240 min, listed as 25HC3S calcium): 0.0 % w/w
% Impurities, Total ([1]; 80° C., 3 wk, ND = Not Detected, listed as 25HC3S calcium): 100%
Stability after 1 week at 60° C. (in words) ([1]; solid state, 60° C., 1 week (after 3 weeks at 2-8° C.)): totally decomposed
Stability after 3 weeks at 80° C. (in words) ([1]; solid state, 80° C., 3 weeks): totally decomposed
Solubility in 5% Dextrose ([2]; 5% dextrose, as free acid, LOD 0.0007 mg/mL, 1440 min): 5 µg/mL
Solubility in FaSSGF (in words) ([2]; FaSSGF, listed as crystalline 25HC3S calcium): low solubility
Solubility in FaSSIF (in words) ([2]; FaSSIF, listed as crystalline 25HC3S calcium): relatively high solubility
Solubility in saline / 0.9% sodium chloride (in words) ([2]; saline, listed as crystalline 25HC3S calcium): low solubility
SMILES: CC(CCCC(C)(C)O)C1CCC2C3CC=C4CC(OS(=O)(=O)O)CCC4(C)C3CCC12C (stereo not shown) [Salt #2]
Physical and chemical solid-state stability (comments) ([1]; 80° C., 3 weeks): Totally decomposed after 1 week at 60 °C and after 3 weeks at 80 °C
degradants dissolved in the diluent (comments) ([1]; after 1 week at 60° C. and 3 weeks at 80° C.): degradants were dissolved in the diluent.extract

Reference: patent US20260317367A1, “SALTS INCLUDING CRYSTALLINE SALTS OF 25-HYDROXY-CHOLEST-5-EN-3-SULFATE AND METHODS FOR PREPARING SAME” (Durect Corporation, priority 2022, published 2026)
